Experimental data: patent US9844541B2, “Methods of modulating follicle stimulating hormone activity” (Strasspharma LLC, priority 2012, dated 2017)

Assays:
[1] = Reproductive endocrine testing of patient treated with vismodegib (case study); format: in vivo, human; conditions: patient on vismodegib 150 mg daily, about six months
Text: (§1) A nulliparous person with a known diagnosis of Gorlin syndrome (Basal cell carcinoma nevus syndrome: Online Mendelian Inheritance in Man #109400) presented with more than 100 discrete BCC papules on the upper trunk and head, and neck regions. They were diagnosed and treated for lymphoma in 1988, prior to the BCCNS diagnosis and received chemotherapy and radiation therapy to the mantle zone, followed by radical neck dissection. They have remained in remission and their therapy had no apparent effect on menstrual function. They experienced menarche and had regular menses at 30 to 35 day intervals until starting the current therapy. Medications included synthroid 0.15 mg for longstanding hypothyroidism.
(§2) Several of their BCC lesions, while not clinically large, appeared in this area of combined radiation and surgical sclerosis overlying the carotid sheath. Multidisciplinary consultation recommended against further surgery. They commenced therapy with vismodegib (Erivedge™ Genentech, Inc., San Francisco, Calif.) 150 mg daily. […] Shortly thereafter they underwent a reproductive endocrinology evaluation.
(§3) Results of reproductive endocrine testing were unique and novel (Table 1). […] elevated FSH and low estrogen level were indicative of a markedly diminished ovarian reserve. However, the presence of preantral follicles and the high AMH value indicated preservation of normal ovarian potential and possible reversal of effect following cessation of therapy.

[2] = system: BCC lesions (Gorlin syndrome); experiment: Clinical response of BCC lesions in patient treated with vismodegib (case study); format: in vivo, human; conditions: 150 mg daily, six months after commencing therapy
Text: as §1, §2

[3] = Adverse effects and reproductive examination in patient treated with vismodegib (case study); format: in vivo, human; conditions: 150 mg daily
Text: as §1, §2

[4] = system: follicle stimulating hormone (FSH) receptor (FSH-R); experiment: Conclusion from endocrine profile: effect on FSH receptor signaling; format: in vivo, human; conditions: concluded from the endocrine profile of one patient
Protocol: as §3
The endocrine profile of a patient who developed amenorrhea while taking vismodegib (Erivedge™) was determined. […] Secondary amenorrhea, […] of established menses, may result from a variety of conditions, including suppression of the pituitary release of FSH or its hypothalamic control via gonadotropin releasing hormone GnRH. This can be drug induced, but patients presenting in this manner typically have very low or non-detectable gonadotropin (FSH and LH) levels and low estrogen levels. Alternatively, patients with ovarian failure (follicle depletion or menopause) present with high gonadotropins, which may be induced by radiation and/or medication such as chemotherapy.
This led to the conclusion that the cause of amenorrhea in at least this patient treated with visomdegib was due to blockage of the follicle stimulating hormone (FSH) receptor (FSH-R) signaling.

[5] = oral therapy of BCC; cited from earlier work
[6] = shortly after six months of therapy

Effect on FSH action at FSH-R [4]: blocked the action of FSH on the FSH-R
Compound: CS(=O)(=O)c1ccc(C(=O)Nc2ccc(Cl)c(-c3ccccn3)c2)c(Cl)c1 [vismodegib]
Follicle stimulating hormone (FSH) level ([1]; follicular phase normal 2-8 IU/L): 16.0 IU/L
Progesterone level ([1]; follicular phase range 0.2-1.5): 0.4
Estradiol level ([1]; follicular phase range 12.5-166 pg/ml): 26.9 pg/mL
Anti-mulerian hormone (AMH) level ([1]; normal range <6.9): 2.6
Leutinizing hormone (LH) level ([1]; ovulation phase range 14.0-95.6): 25.3
Clinical resolution of BCC lesions [2]: near complete clinical resolution of all lesions
Side effects ([3]; approximately four months after onset of amenorrhea): hair loss, slight dysgeusia, and minor leg cramping
Menstrual function ([3]; one month after start): became amenorrheic
Transvaginal ultrasonography of ovaries [3, 6]: normal ovaries, bilaterally containing multiple pre-antral follicles
Vaginal exam findings [3, 6]: moderate atrophic vaginal changes suggesting hypoestrogenism
Major side effects [5]: dysgeusia, alopecia, leg cramping, and gastrointestinal disturbances
